{"source": "patent US10906909B2", "about": "“Treatment of cognitive and mood symptoms in neurodegenerative and neuropsychiatric disorders with ALPHA5-containing GABAA receptor agonists” (UWM Research Foundation, Inc., priority 2016, dated 2021)", "system": "rats", "test": "Morris water maze", "type": "in vivo, rat", "procedure": "The potential of MP-III-022 to affect cognitive performance of rats was assessed in 2 well-validated behavioral models. First, Morris water maze experiments were performed in a 2 m diameter circular pool filled to a height of 30 cm with water at 22±1° C. The escape platform (15 cm×10 cm) was submerged 2 cm below the water surface. All experimental details were as described in Savic et al. (Int. J. Neuropsychopharmacol. 2009, 12, 1179-1193). On each of the five consecutive days rats were given one swimming block, consisting of four trials. For each trial the rat was placed in the water at one of four pseudo-randomly determined starting positions. Once the rat has found and mounted the escape platform it was permitted to remain on the platform for 15 s. […] During the acquisition phase, treatments were applied once daily before the swimming block. On the sixth day, rats were given a treatment-free probe test (60 s) without the platform. The probe test was started from the novel, most distant location. Dependent variables chosen for tracking during the acquisition trials were: escape latency (s), total distance traveled (m), path efficiency (the ratio of the shortest possible path length to actual path length), % of distance swam in the peripheral annulus and mean speed (m/s). The selected parameters in the probe test were the distance swam in the target zone […] and % of the distance swam in the peripheral annulus. We tested the effects of 1, 2.5 and 10 mg/kg MP-III-022 and 2 mg/kg diazepam as control drug. The doses of MP-III-022 were selected so that they elicit a mild, moderate and strong positive modulation of α5GABAARs, respectively, in accordance with the analysis of thorough pharmacokinetic and electrophysiological data presented in Stamenic et al. (Eur. J. Pharmacol. 2016, 791, 433-443). The data from the acquisition days in the Morris water maze were averaged for each rat (total data/total number of trials per day) and analyzed using two-way ANOVA with repeated measures (factors: Treatment and Days) with Days as the repeated measure. In the case of significant interaction, separate one-way ANOVAs were conducted to assess the influence of treatment within individual levels of factor Days. The data from the probe test were assessed using one-way ANOVA.", "data": [{"smiles": "C#Cc1ccc2c(c1)C(c1ccccc1F)=N[C@H](C)c1c(C(=O)NC)ncn1-2", "note": "[MP-III-022]", "values": [{"measurement": "spatial learning and memory (water maze, probe test)", "setting": "1 mg/kg", "result": "significant improvement in spatial learning and memory processes"}, {"measurement": "escape latency, distance, distance in peripheral ring, path efficiency (acquisition)", "setting": "1 mg/kg vs 2 mg/kg diazepam and 10 mg/kg MP-III-022 groups", "result": "shorter escape latencies, shorter distances, swam less distance in the peripheral ring and had higher path efficiencies"}, {"measurement": "path efficiency on Day II", "setting": "1 mg/kg, Day II of acquisition", "result": "higher path efficiencies compared to the control and all other treatment groups"}, {"measurement": "spatial learning during acquisition in the water maze", "setting": "MP-III-022 10 mg/kg once daily before swimming block", "result": "spatial learning incapacitation indistinguishable from that induced by diazepam 2 mg/kg"}, {"measurement": "spatial learning and memory (water maze, probe test)", "setting": "high doses", "result": "mimic the cognitive disruption effect of diazepam"}]}]}
